Experimental data from the NIST ThermoML archive (doi:10.1016/j.jct.2019.06.028).
± gives the expanded uncertainty stated by the source.

Legend:
[1] = xn = mol fraction of the nth substance listed; conditions: 101 kPa, Liquid, Vibrating tube method
[2] = 101 kPa, Liquid, Vibrating tube method

CC(N)=O [ethanamide] + O
mass density [kg/m3], [1]
Conditions	278.15 K	288.15 K	298.15 K	308.15 K	323.15 K
x1 = 0.0045	1001.13 ± 0.09	1000.13 ± 0.09	997.95 ± 0.09	994.84 ± 0.09	988.72 ± 0.09
x1 = 0.00696	1001.77 ± 0.09	1000.68 ± 0.09	998.45 ± 0.09	995.28 ± 0.09	989.09 ± 0.09
x1 = 0.01255	1003.21 ± 0.09	1001.93 ± 0.09	999.55 ± 0.09	996.27 ± 0.09	989.94 ± 0.09
x1 = 0.0221	1005.68 ± 0.09	1004.08 ± 0.09	1001.45 ± 0.09	997.97 ± 0.09	991.4 ± 0.09
x1 = 0.03704	1009.47 ± 0.09	1007.37 ± 0.09	1004.39 ± 0.09	1000.6 ± 0.09	993.65 ± 0.09
x1 = 0.04992	1012.61 ± 0.09	1010.12 ± 0.09	1006.82 ± 0.09	1002.79 ± 0.09	995.48 ± 0.09
x1 = 0.0607	1015.11 ± 0.12	1012.3 ± 0.12	1008.75 ± 0.12	1004.54 ± 0.12	996.95 ± 0.12
x1 = 0.07958	1019.24 ± 0.12	1015.92 ± 0.12	1011.95 ± 0.12	1007.37 ± 0.12	999.36 ± 0.12
x1 = 0.09463	1022.32 ± 0.12	1018.65 ± 0.12	1014.35 ± 0.12	1009.49 ± 0.12	1001.16 ± 0.12
x1 = 0.1128	1025.82 ± 0.26	1021.71 ± 0.25	1017.06 ± 0.24	1011.89 ± 0.23	1003.22 ± 0.23
x1 = 0.1325	1029.34 ± 0.25	1024.81 ± 0.24	1019.79 ± 0.23	1014.32 ± 0.23	1005.31 ± 0.22
x1 = 0.159	1033.54 ± 0.24	1028.5 ± 0.23	1023.07 ± 0.23	1017.25 ± 0.22	1007.78 ± 0.22
x1 = 0.1991	1038.57 ± 0.23	1032.99 ± 0.23	1027.09 ± 0.22	1020.83 ± 0.22	1010.87 ± 0.22
x1 = 0.2503	1043.75 ± 0.23	1037.61 ± 0.22	1031.18 ± 0.22	1024.52 ± 0.22	1013.96 ± 0.22
x1 = 0.3039	–	1041.06 ± 0.22	1034.29 ± 0.22	1027.28 ± 0.22	1016.34 ± 0.22
x1 = 0.3456	–	1043.19 ± 0.23	1036.18 ± 0.22	1028.97 ± 0.22	1017.76 ± 0.22
x1 = 0.3875	–	–	1037.52 ± 0.23	1030.2 ± 0.22	1018.81 ± 0.22

O [water]
[2]
Conditions	mass density [kg/m3]
278.15 K	999.96 ± 0.09
323.15 K	988.03 ± 0.09

O [water] + CC(N)=O
[1], x2 = 0
Conditions	mass density [kg/m3]
278.15 K	999.96 ± 0.09
323.15 K	988.03 ± 0.09
